Reference: US20210255168A1, “A METHOD OF PRECISION CANCER THERAPY” (KING FAISAL SPECIALIST HOSPITAL & RESEARCH CENTRE, priority 2018, published 2021)

Experiments:
Type in all cases: cell-based
[1] = system: HuR mRNA in MDA-MB-231 cells; test: qPCR for HuR mRNA expression; conditions: MDA-MB-231, 24 h, vs DMSO
Procedure: (§1) Cells were cultured in six-well plates and either treated with DMSO or drugs for 24 h. Total RNA was then extracted using Trizol reagent (TRI Reagent, Sigma-Aldrich, St Louis, Mo.). The cells were lysed directly on the culture dish by adding 1 ml of the TRI Reagent per 10 cm^2 surface area. Reverse transcription for preparation of cDNA was performed using 3 μg of total RNA, 150 ng random primers, 0.1 M dithiothreitol (DTT), 10 mM deoxynucleotide triphosphate (dNTP) and 200 U of SuperScript II (Invitrogen, Foster City, Calif.). The quantitative RT-QPCR was performed in multiplex in the Chroma 4 DNA Engine cycler (BioRad, Hercules, Calif., USA) using FAM-labelled TaqMan probes (Applied Biosystems, Foster City, Calif., USA) for TTP (ZFP36), HuR (ELAVL1), uPA (PLAU)-CXCR4, MMP-1, MMP-13, IL-8, PLK-1 while a VIC-labelled glyceraldehyde-3-phosphate dehydrogenase (GAPDH) probe was used as the endogenous control. Samples were amplified in triplicate and quantification of relative expression was performed using the estimation of quantitation cycle (Cq) method.
To study the influence of PLK-1 inhibition on ARE-containing mRNA stability, the effect of volasertib treatment on the half-life of uPA was analyzed. Half-life of uPA mRNA was reduced from >6 hr to 0.5 hr in response to volasertib treatment compared to the DMSO control (FIG. 12C). […]

[2] = system: TNF-α-ARE luciferase reporter in MDA-MB-231 cells; test: Post-transcriptional ARE luciferase reporter assay (kinase inhibitor library screen)
Excerpt: Reporters were designed to be driven by the ribosomal protein subunit 30 (RPS30) promoter. The promoter was amplified using PCR with primers specific to the flanking region of the RPS30 promoter sequence. The gene structure of RPS30 was obtained from the Ribosomal Protein Database (http://ribosome.med.miyazaki-u.ac.jp). The forward and reverse primers included the restriction sites, EcoR V and SalI sites. Amplified DNA fragments were then resolved in 1.2%-1.5% agarose gel and the amplicon bands were excised, purified and cloned into the promoterless plasmid. TNF-α 3′-UTR and TNF-α ARE were used to study the role of AU-rich elements in the action of PKs inhibitors. The AU-rich sequence that comprised 250 bases from TNF-α 3′UTR (1200-1450 bp, NM_00059) was amplified by PCR using the forward primer 5′-[…]-3′ (SEQ ID NO:1) and the reverse primer 5′-[…]-3′ (SEQ ID NO:2). The TNF-α-ARE sequence was made by annealing two synthetic complementary oligonucleotides of 70 bases that correspond to TNF-α ARE. The control reporter was constructed to have the basic structure of post-transcriptional reporter except 3′UTR which lack the AU-rich element sequence like this of bovine growth hormone. Any ARE reiterations or variations can be used, with minimal sequence is AUUUA, preferably, WW(AUUUA)WW, where W=A or U. They can be also repeated as an overall, e.g., AUUUAUUA, anywhere from 0 to 10 repeats as example.
Selleckchem Kinase Inhibitor Library that includes a selection of 378 pharmacologically active inhibitors of a number of protein kinases was purchased from Selleckchem. (Houston, Tex., USA). This library is a collection of 378 kinase inhibitors some of which have been approved by the FDA. Each compound is provided as a pre-dissolved 10 mM dimethyl sulfoxide (DMSO) solution as a 96 well format tube (100 μL). The compounds were diluted by OPTI-MEM (Thermo Fisher Scientific, Waltham, Mass., USA) to a final concentration of 5 μM.
Post-transcriptional and control reporter constructs were transfected to MDA-MB-231 cells separately that were seeded in 96-well microplates at a density of 4×10^4 cells/well and incubated overnight. Using lipofectamine 2000 protocol (Invitrogen, Carlsbad, Calif., USA), the cells were transfected with 10 ng of either RPS30-luciferase-control 3′UTR or RPS30-luciferase-ARE 3′UTR reporter plasmids. After 24 h, the cells were treated with each member of protein kinase inhibitors kit for 24 h. Then, luciferase reaction was performed as prescribed by manufacture's protocol (Nano-Glo Luciferase, Promega, Madison, Wis., USA)/well. After 15 minutes, the reporters' activities were measured through the measurement of the chemiluminescence (FIG. 8) after treatment using a Zenith 3100 (Anthos Labtec, Eugendorf, Austria).
Data are presented as means±standard error of the mean (SEM). Two-sample Student's t-test was used to determine the differences between two data sets. One-way analysis of variance (ANOVA) was used to compare three or more data columns. Two-way analysis of variance was used to analyze two groups of data, each having two data columns. Analysis was performed using GraphPad Prism version 6.00 for Windows, (GraphPad Software, La Jolla Calif., USA). For high throughput screening (HTS) hit selection (protein kinase inhibitors), strictly standardized mean difference (SSMD) test was used. This statistical test measures the size of effect of each member in a group relative to the other members. It is the mean of each member divided by the standard deviation of the difference between two random values from different groups. Based on the value of SSMD, the effect of each member of the library was classified as strong (β≥5), moderate (1≤β<5), and weak (β<1). In this study, only drug with SSMD score more than or equal to 5 or less than or equal to −5, i.e. strong β, where selected in the primary screening. […]

[3] = system: MDA-MB-231, MCF7, and SKBR3 cell lines; test: mRNA expression in breast cancer cell lines
Procedure: as §1
PLK1 kinase, as an example of kinases involved in cancer, is over-expressed in breast cancer cell lines, including MCF7, MDA-MB-231 and SKBR3 when compared to the normal-like MCF10A (FIG. 5A). Many kinases are either over-expressed or constitutively active or hyperactive in cancer states when compared to normal cells. As example of inhibitors that are found in the precision cancer therapy screen, Volasertib and Regorafenib (VEGFR kinase inhibitor) led to reduction in the level of ARE-containing mRNA, uPA in most of the cancer cell lines. (FIG. 5B).
The present inventors further disclose that the effect of PLK-1 inhibition is consistent among different types of breast cancer including triple-negative, […], and ER-PR negative breast cancers, as shown through the actions induced by PLK-1 inhibitor volasertib on MDA-MB-231, MCF7, and SKBR3 cell lines, namely increasing the expression of TTP, decreasing the HuR level, and downregulating the TTP target uPA. […] Accordingly, the present inventor discloses that any protein kinase inhibitor which post-transcriptionally regulates expression of cancer-related genes is suitable for precision cancer therapy. Further disclosed is a method of treatment of cancer comprising administering said protein kinase inhibitor, to a patient in need thereof.

[4] = MDA-MB-231, MCF7, and SKBR3 cell lines

**Q.** How did the “reduction of HuR mRNA expression” value [1] turn out when `CC[C@@H]1C(=O)N(C)c2cnc(Nc3ccc(C(=O)N[C@H]4CC[C@H](N5CCN(CC6CC6)CC5)CC4)cc3OC)nc2N1C(C)C` [volasertib] was run?
**A.** 60%

**Q.** And the “reduction of TNF-ARE luciferase reporter activity” value ([2]; primary screening, 5 μM)?
**A.** 40%

**Q.** And the “reduction in percent reporter activity in the secondary screening compared to the control reporter” value ([2]; secondary screening, ARE vs non-ARE control reporter)?
**A.** same reduction in percent reporter activity

**Q.** What about the “level of ARE-containing mRNA uPA in cancer cell lines” value ([3]; MCF7, MDA-MB-231 and SKBR3, most of the cancer cell lines) of the same compound?
**A.** reduction

**Q.** What about the HuR level [3, 4] of the same compound?
**A.** decreasing

**Q.** What about the “TTP target uPA” value [3, 4] of the same compound?
**A.** downregulating

**Q.** What about the “expression of TTP” value [3, 4] of the same compound?
**A.** increasing
